Target: T1, human plasma protein factor Xa (Homo sapiens, UniProt P00742)
T1 construct: measure proteolytic activity of the enzyme (factor Xa); purchased Haematologic Technologies (Essex Junction, Vt.); host or cells: human plasma
Test: Factor Xa IC50 determination: cleavage of paranitroanilide substrate S-2765 in 96-well plates
Type: biochemical
Settings: fXa 1 nM, S-2765 100 μM, Tris buffered saline pH 7.4, room temperature
Outline: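 Human plasma factor Xa (1 nM) preincubated 5 min at room temperature with inhibitor (0.01 nM–10 μM final) in Tris-buffered saline pH 7.4 with 5 mM CaCl2, 0.1% BSA, 5% DMSO. S-2765 at 100 μM final; hydrolysis at 405 nm over 2 min. IC50 from 4-parameter fit of initial velocities.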

T1 sequence (P00742 235-488 limits assumed): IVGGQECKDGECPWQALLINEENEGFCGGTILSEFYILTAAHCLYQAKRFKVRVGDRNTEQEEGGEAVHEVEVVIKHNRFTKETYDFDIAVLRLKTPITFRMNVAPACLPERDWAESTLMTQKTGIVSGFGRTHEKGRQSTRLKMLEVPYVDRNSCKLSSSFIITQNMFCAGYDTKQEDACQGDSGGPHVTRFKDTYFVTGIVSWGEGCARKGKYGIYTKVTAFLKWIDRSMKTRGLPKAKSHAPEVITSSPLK
T1 sequence (P00742 41-179 partner limits assumed): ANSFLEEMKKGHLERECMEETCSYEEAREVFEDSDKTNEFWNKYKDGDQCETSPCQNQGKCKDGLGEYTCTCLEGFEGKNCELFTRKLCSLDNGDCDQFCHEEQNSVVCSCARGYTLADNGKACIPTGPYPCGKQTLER

Compound | IC50 [nM]
O=C(NCC1CC(c2ccc(N3CCOCC3=O)cc2)=NO1)c1ccc(Cl)s1 (centres unmarked) [Example 243, 5-Chloro-thiophene-2-carboxylic acid {3-[4-(3-oxo-morpholin-4-yl)-phenyl]-4,5-dihydro-isoxazol-5-ylmethyl}-amide] | ≤ 100
O=C(NCc1cn(-c2ccc(-n3ccccc3=O)cc2F)nn1)c1ccc(Cl)s1 [Example 305, 5-Chloro-N-((1-(2-fluoro-4-(2-oxopyridin-1(2H)-yl)phenyl)-1H-1,2,3-triazol-4-yl)methyl)thiophene-2-carboxamide] | ≤ 100
N=C(c1ccc(C2=NOC(CNC(=O)c3ccc(Cl)s3)C2)c(N2CCCC2)c1)N1CCCC1 (centres unmarked) [Example 80, 5-Chloro-thiophene-2-carboxylic acid {3-[4-(imino-pyrrolidin-1-yl-methyl)-2-pyrrolidin-1-yl-phenyl]-4,5-dihydro-isoxazol-5-ylmethyl}-amide] | 100 to 500
COc1ccc(CN2CCCC2)c(-c2ccc(C3=NOC(CNC(=O)c4ccc(Cl)s4)C3)cc2)c1 (centres unmarked) [Example 203, 5-Chloro-thiophene-2-carboxylic acid [3-(5′-methoxy-2′-pyrrolidin-1-ylmethyl-biphenyl-4-yl)-4,5-dihydro-isoxazol-5-ylmethyl]-amide] | ≤ 100
N=C(c1ccc(-c2cc(CNC(=O)c3ccc(Cl)s3)on2)cc1)N1CCCCC1 [Example 24, 5-Chloro-thiophene-2-carboxylic acid {3-[4-(imino-piperidin-1-yl-methyl)-phenyl]-isoxazol-5-ylmethyl}-amide] | ≤ 100
O=C(NCc1cc(-c2ccc(-n3ccccc3=O)nc2)no1)c1ccc(Cl)s1 [Example 310, 5-Chloro-N-((3-(6-(2-oxopyridin-1(2H)-yl)pyridin-3-yl)isoxazol-5-yl)methyl)thiophene-2-carboxamide] | ≤ 100
Cc1ccc(=O)n(-c2ccc(C3=NOC(CNC(=O)c4ccc(Cl)s4)C3)cc2)c1 (centres unmarked) [Example 285, 5-Chloro-N-((3-(4-(5-methyl-2-oxopyridin-1(2H)-yl)phenyl)-4,5-dihydroisoxazol-5-yl)methyl)thiophene-2-carboxamide] | ≤ 100
CC(NC(=O)c1ccc(Cl)s1)c1cc(-c2ccc(C(=N)N(C)C)cc2)no1 (stereo in doubt) [Example 53, (R)-5-Chloro-thiophene-2-carboxylic acid (1-{3-[4-(N,N-dimethyl-carbamimidoyl)-phenyl]-isoxazol-5-yl}-ethyl)-amide] | ≥ 500
CN(C)Cc1ccc(Cl)cc1-c1ccc(C2=NOC(CNC(=O)c3ccc(Cl)s3)C2)cc1 (centres unmarked) [Example 204, 5-Chloro-thiophene-2-carboxylic acid [3-(5′-chloro-2′-dimethylaminomethyl-biphenyl-4-yl)-4,5-dihydro-isoxazol-5-ylmethyl]-amide] | ≤ 100
CN(C)Cc1ccccc1-c1ccc(C2=NOC(CNC(=O)c3ccc(Cl)s3)C2)cc1 (centres unmarked) [Example 194, 5-Chloro-thiophene-2-carboxylic acid [3-(2′-dimethylaminomethyl-biphenyl-4-yl)-4,5-dihydro-isoxazol-5-ylmethyl]-amide] | ≤ 100
N=C(c1ccc(-c2cc(CNC(=O)c3ccc(Cl)s3)on2)c(Oc2ccccc2)c1)N1CCCC1 [Example 132, 5-Chloro-thiophene-2-carboxylic acid {3-[4-(imino-pyrrolidin-1-yl-methyl)-2-phenoxy-phenyl]-isoxazol-5-ylmethyl}-amide] | ≤ 100
CC1(CNC(=O)c2ccc(Cl)s2)CC(c2ccc(C(=N)N3CCC(C(N)=O)CC3)cc2)=NO1 (centres unmarked) [Example 68, 1-{[4-(5-{[(5-Chloro-thiophene-2-carbonyl)-amino]-methyl}-5-methyl-4,5-dihydro-isoxazol-3-yl)-phenyl]-imino-methyl}-piperidine-4-carboxylic acid amide] | 100 to 500
O=C(NCC1CC(c2ccc(Nc3ccnc4ccc(C(F)(F)F)cc34)cc2)=NO1)c1ccc(Cl)s1 (centres unmarked) [Example 395, 5-Chloro-N-((3-(4-(6-(trifluoromethyl)quinolin-4-ylamino)phenyl)-4,5-dihydroisoxazol-5-yl)methyl)thiophene-2-carboxamide] | ≤ 100
COc1cc(C(=N)N(C)C)ccc1-c1cc(CNC(=O)c2ccc(Cl)s2)on1 [Example 118, 5-Chloro-thiophene-2-carboxylic acid {3-[4-(N,N-dimethyl-carbamimidoyl)-2-methoxy-phenyl]-isoxazol-5-ylmethyl}-amide] | ≤ 100
CN1CCN=C1c1ccc(-c2cc(CNC(=O)c3ccc(Cl)s3)on2)cc1 [Example 22, 5-Chloro-thiophene-2-carboxylic acid {3-[4-(1-methyl-4,5-dihydro-1H-imidazol-2-yl)-phenyl]-isoxazol-5-ylmethyl}-amide] | ≤ 100
O=C(NCC1CC(c2ccc(-c3ccccc3CN3CCCCC3)cc2)=NO1)c1ccc(Cl)s1 (centres unmarked) [Example 196, 5-Chloro-thiophene-2-carboxylic acid [3-(2′-piperidin-1-ylmethyl-biphenyl-4-yl)-4,5-dihydro-isoxazol-5-ylmethyl]-amide] | ≤ 100

Compound | IC50 [nM]
N=C(c1ccc(-c2cc(CNC(=O)c3ccc(Cl)s3)on2)cc1)N1CCCC1 [Example 23, 5-Chloro-thiophene-2-carboxylic acid {3-[4-(imino-pyrrolidin-1-yl-methyl)-phenyl]-isoxazol-5-ylmethyl}-amide] | ≤ 100
Cc1cccn(-c2ccc(-n3cc(CNC(=O)c4ccc(Cl)s4)nn3)cc2)c1=O [Example 293, 5-Chloro-N-((1-(4-(3-methyl-2-oxopyridin-1(2H)-yl)phenyl)-1H-1,2,3-triazol-4-yl)methyl)thiophene-2-carboxamide] | ≤ 100
CSc1cc(C2=NCCN2C)ccc1C1=NOC(CNC(=O)c2ccc(Cl)s2)C1 (centres unmarked) [Example 137, 5-Chloro-thiophene-2-carboxylic acid {3-[4-(1-methyl-4,5-dihydro-1H-imidazol-2-yl)-2-methylsulfanyl-phenyl]-4,5-dihydro-isoxazol-5-ylmethyl}-amide] | ≤ 100
N=C(c1ccccc1)N1CCC(c2cc(CNC(=O)c3ccc(Cl)s3)on2)CC1 [Example 181, 5-Chloro-thiophene-2-carboxylic acid {3-[1-(imino-phenyl-methyl)-piperidin-4-yl]-isoxazol-5-ylmethyl}-amide] | ≥ 500
COCCN(C)c1cc(C(=N)N2CCCCC2)ccc1C1=NOC(CNC(=O)c2ccc(Cl)s2)C1 (centres unmarked) [Example 89, 5-Chloro-thiophene-2-carboxylic acid (3-{4-(imino-piperidin-1-yl-methyl)-2-[(2-methoxy-ethyl)-methyl-amino]-phenyl}-4,5-dihydro-isoxazol-5-ylmethyl)-amide] | 100 to 500
CSc1cc(C2=NCCN2C)ccc1-c1cc(CNC(=O)c2ccc(Cl)s2)on1 [Example 141, 5-Chloro-thiophene-2-carboxylic acid {3-[4-(1-methyl-4,5-dihydro-1H-imidazol-2-yl)-2-methylsulfanyl-phenyl]-isoxazol-5-ylmethyl}-amide] | ≤ 100
Cc1cc(Nc2ccc(C3=NOC(CNC(=O)c4ccc(Cl)s4)C3)cc2)ccn1 (centres unmarked) [Example 228, 5-Chloro-thiophene-2-carboxylic acid {3-[4-(2-methyl-pyridin-4-ylamino)-phenyl]-4,5-dihydro-isoxazol-5-ylmethyl}-amide] | ≥ 500
O=C(NCc1cc(-c2ccc(-c3ccccn3)cc2)no1)c1ccc(Cl)s1 [Example 220, 5-Chloro-thiophene-2-carboxylic acid [3-(4-pyridin-2-yl-phenyl)-isoxazol-5-ylmethyl]-amide] | ≥ 500
COCc1ccccc1-c1ccc(-c2cc(CNC(=O)c3ccc(Cl)s3)on2)cc1 [Example 189, 5-Chloro-thiophene-2-carboxylic acid [3-(2′-methoxymethyl-biphenyl-4-yl)-isoxazol-5-ylmethyl]-amide] | 100 to 500
CCCN(C)C(=N)c1ccc(-c2nc(CNC(=O)c3ccc(Cl)s3)co2)cc1 [Example 344, N-((2-(4-(N-Methyl-N-propylcarbamimidoyl)phenyl)oxazol-4-yl)methyl)-5-chlorothiophene-2-carboxamide] | 100 to 500
O=C(NCC1CC(c2ccc(Nc3ccc(F)cc3)cc2)=NO1)c1ccc(Cl)s1 (centres unmarked) [Example 223, 5-Chloro-thiophene-2-carboxylic acid {3-[4-(4-fluoro-phenylamino)-phenyl]-4,5-dihydro-isoxazol-5-ylmethyl}-amide] | ≥ 500
COc1ccc(=O)n(-c2ccc(-n3cc(CNC(=O)c4ccc(Cl)s4)nn3)cc2)c1 [Example 297, 5-Chloro-N-((1-(4-(5-methoxy-2-oxopyridin-1(2H)-yl)phenyl)-1H-1,2,3-triazol-4-yl)methyl)thiophene-2-carboxamide] | ≤ 100
CSc1cc(C(=N)N2CCCC2)ccc1-c1cc(CNC(=O)c2ccc(Cl)s2)on1 [Example 142, 5-Chloro-thiophene-2-carboxylic acid {3-[4-(imino-pyrrolidin-1-yl-methyl)-2-methylsulfanyl-phenyl]-isoxazol-5-ylmethyl}-amide] | ≤ 100
CN(C)c1cc(C(=N)N2CCCCC2)ccc1C1=NOC(CNC(=O)c2ccc(Cl)s2)C1 (centres unmarked) [Example 77, 5-Chloro-thiophene-2-carboxylic acid {3-[2-dimethylamino-4-(imino-piperidin-1-yl-methyl)-phenyl]-4,5-dihydro-isoxazol-5-ylmethyl}-amide] | ≤ 100
CN1CCN=C1c1ccc(-c2cc(CNC(=O)c3ccc(Cl)s3)on2)c(F)c1 [Example 70, 5-Chloro-thiophene-2-carboxylic acid {3-[2-fluoro-4-(1-methyl-4,5-dihydro-1H-imidazol-2-yl)-phenyl]-isoxazol-5-ylmethyl}-amide] | ≤ 100
CN(C)C(=N)c1ccc(-c2cc(CNC(=O)c3ccc(Cl)s3)no2)cc1 [Example 330, N-((5-(4-(N,N-Dimethylcarbamimidoyl)phenyl)isoxazol-3-yl)methyl)-5-chlorothiophene-2-carboxamide] | ≤ 100
